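Interpolation was linear, between the two tested concentrations surrounding the appropriate level; five concentrations were tested over 48 hours in 96-well plates. Abbreviation: GI50, concentration required for 50% inhibition of growth.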 The source made the active and inactive calls. No stated cut-off is given here; in the data, active = GI50 up to about 1.1 µM and inactive = higher.
How the values were obtained:
Assay in all cases: inhibition of tumour cell growth, NCI panel, 48 h
SF-295 = tested on: SF-295
LOX IMVI = tested on: LOX IMVI
Hs-578T = tested on: Hs-578T
MOLT-4 = tested on: MOLT-4
NCI-H23 = tested on: NCI-H23
EKVX = tested on: EKVX
NCI/ADR-RES = tested on: NCI/ADR-RES
HCT-15 = tested on: HCT-15
U-251 = tested on: U-251
MDA-MB-435 = tested on: MDA-MB-435
RXF 393 = tested on: RXF 393
NCI-H522 = tested on: NCI-H522
SK-MEL-5 = tested on: SK-MEL-5
IGROV-1 = tested on: IGROV-1
OVCAR-5 = tested on: OVCAR-5
SK-OV-3 = tested on: SK-OV-3
PC-3 = tested on: PC-3
HCC 2998 = tested on: HCC 2998
SNB-75 = tested on: SNB-75
HT-29 = tested on: HT-29
OVCAR-3 = tested on: OVCAR-3
M14 = tested on: M14
NCI-H226 = tested on: NCI-H226
UACC-257 = tested on: UACC-257
Malme-3M = tested on: Malme-3M
DU-145 = tested on: DU-145
MDA-N = tested on: MDA-N
CCRF-CEM = tested on: CCRF-CEM
OVCAR-4 = tested on: OVCAR-4
786-0 = tested on: 786-0
HOP-92 = tested on: HOP-92
COLO 205 = tested on: COLO 205
BT-549 = tested on: BT-549
T47D = tested on: T47D
HOP-62 = tested on: HOP-62
MDA-MB-231 = tested on: MDA-MB-231
SR = tested on: SR
NCI-H460 = tested on: NCI-H460
K562 = tested on: K562
SNB-19 = tested on: SNB-19
SW-620 = tested on: SW-620
CAKI-1 = tested on: CAKI-1
RPMI-8226 = tested on: RPMI-8226
SK-MEL-28 = tested on: SK-MEL-28
UACC-62 = tested on: UACC-62
OVCAR-8 = tested on: OVCAR-8
TK-10 = tested on: TK-10
SN12C = tested on: SN12C
SK-MEL-2 = tested on: SK-MEL-2
SF-268 = tested on: SF-268
A549 = tested on: A549
SF-539 = tested on: SF-539
HL-60 = tested on: HL-60
MCF7 = tested on: MCF7
HCT-116 = tested on: HCT-116
A498 = tested on: A498
ACHN = tested on: ACHN
KM12 = tested on: KM12
UO-31 = tested on: UO-31

Q: Which results are given for `N#Cc1ccc(C2ON=C(c3ccccc3)N2C23CC4CC(CC(C4)C2)C3)cc1` (stereo unspecified)?
A: GI50 (SF-295): > 10 µM (inactive); GI50 (LOX IMVI): > 10 µM (inactive); GI50 (Hs-578T): > 10 µM (inactive); GI50 (MOLT-4): 9.66 µM (inactive); GI50 (NCI-H23): > 10 µM (inactive); GI50 (EKVX): > 10 µM (inactive); GI50 (NCI/ADR-RES): 0.00536 µM (active); GI50 (HCT-15): > 10 µM; GI50 (U-251): > 10 µM (inactive); GI50 (MDA-MB-435): > 10 µM (inactive); GI50 (RXF 393): > 10 µM (inactive); GI50 (NCI-H522): > 10 µM (inactive); GI50 (SK-MEL-5): > 10 µM (inactive); GI50 (IGROV-1): > 10 µM (inactive); GI50 (OVCAR-5): > 10 µM (inactive); GI50 (SK-OV-3): > 10 µM (inactive); GI50 (PC-3): 7.98 µM (inactive); GI50 (HCC 2998): > 10 µM (inactive); GI50 (SNB-75): > 10 µM (inactive); GI50 (HT-29): > 10 µM (inactive); GI50 (OVCAR-3): > 10 µM (inactive); GI50 (M14): > 10 µM (inactive); GI50 (NCI-H226): 6.76 µM (inactive); GI50 (UACC-257): > 10 µM (inactive); GI50 (Malme-3M): > 10 µM (inactive); GI50 (DU-145): > 10 µM (inactive); GI50 (MDA-N): > 10 µM (inactive); GI50 (CCRF-CEM): > 10 µM (inactive); GI50 (OVCAR-4): > 10 µM (inactive); GI50 (786-0): > 10 µM (inactive); GI50 (HOP-92): > 10 µM (inactive); GI50 (COLO 205): > 10 µM (inactive); GI50 (BT-549): 5.66 µM (inactive); GI50 (T47D): > 10 µM (inactive); GI50 (HOP-62): > 10 µM (inactive); GI50 (MDA-MB-231): > 10 µM (inactive); GI50 (SR): 3.85 µM (inactive); GI50 (NCI-H460): > 10 µM (inactive); GI50 (K562): > 10 µM (inactive); GI50 (SNB-19): > 10 µM (inactive); GI50 (SW-620): > 10 µM (inactive); GI50 (CAKI-1): > 10 µM (inactive); GI50 (RPMI-8226): 6.19 µM (inactive); GI50 (SK-MEL-28): > 10 µM (inactive); GI50 (UACC-62): > 10 µM (inactive); GI50 (OVCAR-8): > 10 µM (inactive); GI50 (TK-10): > 10 µM (inactive); GI50 (SN12C): > 10 µM (inactive); GI50 (SK-MEL-2): > 10 µM (inactive); GI50 (SF-268): > 10 µM (inactive); GI50 (A549): > 10 µM (inactive); GI50 (SF-539): > 10 µM (inactive); GI50 (HL-60): 4.05 µM (inactive); GI50 (MCF7): > 10 µM (inactive); GI50 (HCT-116): > 10 µM (inactive); GI50 (A498): > 10 µM (inactive); GI50 (ACHN): > 10 µM (inactive); GI50 (KM12): > 10 µM (inactive)

Q: For `Cc1ccc(CC(Cc2ccc(C)cc2C(=O)O)C(=O)O)cc1` (stereo unspecified), which GI50 (SF-295) is on record?
A: The GI50 was > 100 µM (inactive).

Q: What about the GI50 (LOX IMVI) of the same molecule?
A: Its GI50 is > 100 µM (inactive).

Q: And the GI50 (Hs-578T)?
A: Its GI50 is > 100 µM (inactive).

Q: What about the GI50 (MOLT-4) of the same molecule?
A: Its GI50 is > 100 µM (inactive).

Q: And the GI50 (NCI-H23)?
A: Its GI50 is > 100 µM (inactive).

Q: And the GI50 (EKVX)?
A: The GI50 was > 100 µM (inactive).

Q: And the GI50 (UO-31)?
A: Its GI50 is > 100 µM (inactive).

Q: What about the GI50 (NCI/ADR-RES) of the same molecule?
A: Its GI50 is > 100 µM (inactive).

Q: What about the GI50 (HCT-15) of the same molecule?
A: Its GI50 is > 100 µM.

Q: And the GI50 (U-251)?
A: The GI50 was > 100 µM (inactive).

Q: What about the GI50 (MDA-MB-435) of the same molecule?
A: The GI50 was > 100 µM (inactive).

Q: What about the GI50 (RXF 393) of the same molecule?
A: Its GI50 is > 100 µM (inactive).

Q: And the GI50 (NCI-H522)?
A: The GI50 was > 100 µM (inactive).

Q: And the GI50 (SK-MEL-5)?
A: Its GI50 is > 100 µM (inactive).

Q: And the GI50 (IGROV-1)?
A: Its GI50 is > 100 µM (inactive).

Q: What about the GI50 (OVCAR-5) of the same molecule?
A: The GI50 was > 100 µM (inactive).

Q: What about the GI50 (SK-OV-3) of the same molecule?
A: The GI50 was > 100 µM (inactive).

Q: And the GI50 (PC-3)?
A: The GI50 was > 100 µM (inactive).

Q: And the GI50 (HCC 2998)?
A: Its GI50 is > 100 µM (inactive).

Q: What about the GI50 (SNB-75) of the same molecule?
A: Its GI50 is > 100 µM (inactive).

Q: What about the GI50 (HT-29) of the same molecule?
A: The GI50 was > 100 µM (inactive).

Q: And the GI50 (OVCAR-3)?
A: The GI50 was > 100 µM (inactive).

Q: And the GI50 (M14)?
A: Its GI50 is > 100 µM (inactive).

Q: And the GI50 (NCI-H226)?
A: The GI50 was > 100 µM (inactive).

Q: And the GI50 (UACC-257)?
A: Its GI50 is > 100 µM (inactive).

Q: And the GI50 (Malme-3M)?
A: Its GI50 is > 100 µM (inactive).

Q: And the GI50 (DU-145)?
A: Its GI50 is > 100 µM (inactive).

Q: And the GI50 (MDA-N)?
A: Its GI50 is > 100 µM (inactive).

Q: What about the GI50 (CCRF-CEM) of the same molecule?
A: The GI50 was > 100 µM (inactive).

Q: What about the GI50 (OVCAR-4) of the same molecule?
A: The GI50 was > 100 µM (inactive).

Q: What about the GI50 (786-0) of the same molecule?
A: Its GI50 is > 100 µM (inactive).

Q: And the GI50 (HOP-92)?
A: The GI50 was > 100 µM (inactive).

Q: And the GI50 (COLO 205)?
A: Its GI50 is > 100 µM (inactive).

Q: What about the GI50 (BT-549) of the same molecule?
A: Its GI50 is > 100 µM (inactive).

Q: And the GI50 (T47D)?
A: The GI50 was > 100 µM (inactive).

Q: What about the GI50 (HOP-62) of the same molecule?
A: Its GI50 is > 100 µM (inactive).

Q: What about the GI50 (MDA-MB-231) of the same molecule?
A: The GI50 was > 100 µM (inactive).

Q: And the GI50 (SR)?
A: The GI50 was > 100 µM (inactive).

Q: And the GI50 (NCI-H460)?
A: Its GI50 is > 100 µM (inactive).

Q: And the GI50 (SNB-19)?
A: Its GI50 is > 100 µM (inactive).

Q: And the GI50 (SW-620)?
A: Its GI50 is > 100 µM (inactive).

Q: What about the GI50 (CAKI-1) of the same molecule?
A: The GI50 was > 100 µM (inactive).

Q: And the GI50 (RPMI-8226)?
A: Its GI50 is > 100 µM (inactive).

Q: And the GI50 (SK-MEL-28)?
A: The GI50 was > 100 µM (inactive).

Q: And the GI50 (UACC-62)?
A: Its GI50 is 43 µM (inactive).

Q: What about the GI50 (OVCAR-8) of the same molecule?
A: The GI50 was > 100 µM (inactive).

Q: And the GI50 (TK-10)?
A: The GI50 was > 100 µM (inactive).

Q: What about the GI50 (SN12C) of the same molecule?
A: The GI50 was > 100 µM (inactive).

Q: What about the GI50 (SK-MEL-2) of the same molecule?
A: The GI50 was > 100 µM (inactive).

Q: And the GI50 (SF-268)?
A: Its GI50 is > 100 µM (inactive).

Q: And the GI50 (A549)?
A: The GI50 was > 100 µM (inactive).

Q: What about the GI50 (SF-539) of the same molecule?
A: Its GI50 is > 100 µM (inactive).

Q: And the GI50 (HL-60)?
A: Its GI50 is > 100 µM (inactive).

Q: And the GI50 (MCF7)?
A: Its GI50 is > 100 µM (inactive).

Q: What about the GI50 (HCT-116) of the same molecule?
A: The GI50 was > 100 µM (inactive).

Q: And the GI50 (A498)?
A: The GI50 was > 100 µM (inactive).

Q: What about the GI50 (ACHN) of the same molecule?
A: The GI50 was > 100 µM (inactive).

Q: And the GI50 (KM12)?
A: The GI50 was > 100 µM (inactive).
